Data from US20070142270A1, “Aryl Sulfonic Pyridoxines as Antiplatelet Agents” (priority 2004, published 2007).
pIC50: −log10 of the molar value. Like-named read-outs stand apart in the source and are kept apart here.

How the values were obtained:
[1] = molecular target: T1, human Factor Xa (fXa) (Homo sapiens, UniProt P00742); experiment: Inhibition of serine protease activity, factor Xa, chromogenic substrate Pefachrome Xa; type: biochemical; conditions: 2 nM human Factor Xa, 300 μM substrate, pH 7.5
T1 construct: purchased Haematologic Technologies Inc. (Essex Junction, Vt.)
T1 sequence (P00742 235-488 limits assumed): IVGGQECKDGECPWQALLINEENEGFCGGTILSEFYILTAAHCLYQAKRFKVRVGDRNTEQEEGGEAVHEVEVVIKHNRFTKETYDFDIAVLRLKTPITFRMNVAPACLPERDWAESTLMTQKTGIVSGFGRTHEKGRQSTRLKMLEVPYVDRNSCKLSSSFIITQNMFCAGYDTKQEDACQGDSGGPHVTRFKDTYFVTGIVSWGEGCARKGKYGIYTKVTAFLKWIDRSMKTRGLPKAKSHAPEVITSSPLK
T1 sequence (P00742 41-179 partner limits assumed): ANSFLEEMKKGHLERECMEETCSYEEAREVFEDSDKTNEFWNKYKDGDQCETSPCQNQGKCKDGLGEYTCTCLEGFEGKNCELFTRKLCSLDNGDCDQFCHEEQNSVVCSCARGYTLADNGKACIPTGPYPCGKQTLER
Method: (§1) The enzymes factor Xa (fXa), thrombin (factor IIa or fIIa), and trypsin were purchased from Haematologic Technologies Inc. (Essex Junction, Vt.). The substrates Pefachromes Xa, Th, and Try were purchased from Centerchem Inc. (Stamford, Conn.). Varying concentrations of the sulfonamide compounds were incubated for 30 min at room temperature with purified activated human enzyme in the appropriate buffer. Various concentrations of the corresponding synthetic substrate were added, and activity was measured at 37° C. by monitoring absorbance at 405 nm for 15 min with a Flurostar Optima plate reader. […] For controls, the appropriate percentage of solvent was used instead of test compound. The specific activity (ΔA405/min/nM protein), and the percent activity was calculated for each data point. The IC50 was calculated by linear regression of log[test compound] vs. % activity. The enzyme activity of the sulfonamide compound was determined using the Enzyme Kinetics Module of Sigmaplot 8.0 (SPSS Inc.)
The final concentration of human Factor Xa was 2 nM in a Tris/NaCl buffer (pH 7.5) containing 0.25% (w/v) polyethylene glycol (MW 8000). The substrate employed was Pefachrome Xa.

[2] = molecular target: T2, human thrombin (factor IIa, fIIa) (Homo sapiens, UniProt P00734); experiment: Inhibition of serine protease activity, thrombin, chromogenic substrate Pefachrome Th; type: biochemical; conditions: 2 nM human thrombin, 300 μM substrate, pH 8.3
T2 construct: purchased Haematologic Technologies Inc. (Essex Junction, Vt.)
Method: as §1
The final concentration of human thrombin was 2 nM in a Tris/NaCl buffer (pH 8.3) containing 0.125% (w/v) bovine serum albumin. The substrate used was Pefachrome Th.

[3] = test system: human trypsin; experiment: Inhibition of serine protease activity, trypsin, chromogenic substrate Pefachrome Try; type: biochemical; conditions: 2 nM human trypsin, 300 μM substrate, pH 7.5
Method: as §1
The final concentration of human trypsin was 2 nM in a Tris/NaCl buffer (pH 7.5) containing 0.25% (w/v) bovine serum albumin and 20 μM CaCl2. The substrate used was Pefachrome Try.

[4] = test system: platelets (platelet rich plasma); experiment: Inhibition of platelet aggregation in platelet rich plasma (Chrono-log aggregometer); type: cell-based; conditions: human PRP; for inhibition at 250 µM: compound concentration 250 μM; for inhibition at 100 µM: compound concentration 100 μM
Method: Platelet poor plasma (PPP) was obtained by centrifuging the remainder of the sample after the platelets were removed at 800×g for about 10 minutes. The PRP was adjusted to a count of 280×10^9/L using a mixture of PRP and PPP. The platelets (200 μL) were incubated with the test compounds (25 μL) adjusted to various concentrations ([…]) for about 30 minutes at room temperature (approximate final platelet count in the incubation mixture of 250×10^9/L). The samples were incubated for about 3 minutes at about 37° C., and then transferred to the mixing wells of a Chrono-log 4 channel aggregometer (Chrono-log Corp., Havertown, Pa.). After baselines were established, the agonist (25 μL of 40 μM ADP (Sigma, St. Louis, Mo.) or 25 μL of 50 μg/mL and 10 μg/mL collagen (Helena Laboratories, Beaumont, Tex.) or 25 μL of 120 μM thrombin receptor activating peptide (TRAP) (Sigma)) was then added. Aggregation was monitored for 5 minutes at 37° C. with stirring (1000 rpm). The amplitude and slope of each tracing were calculated to determine the amount of aggregation. Control samples were performed using only solvent. The % reduction in aggregation was calculated for each sample compared to the proper solvent control.

[5] = test system: platelets (platelet rich plasma); experiment: as above; type: cell-based; conditions: compound concentration 500 μM, human PRP
[6] = agonist ADP 4 μM, read-out: % Reduction in Aggregation, ADP (4 μM)
[7] = agonist TRAP 12 μM, read-out: % Reduction in Aggregation, TRAP (12 μM)
[8] = agonist collagen 1 μg/mL, read-out: % Reduction in Aggregation, Collagen (1 μg/mL)
[9] = agonist collagen 5 μg/mL, read-out: % Reduction in Aggregation, Collagen (5 μg/mL)

| Structure (SMILES) | pIC50 [1] | pIC50 [2] | pIC50 [3] | inhibition at 250 µM [4, 6] | inhibition at 250 µM [4, 7] | inhibition at 250 µM [4, 8] | inhibition at 250 µM [4, 9] | further results |
| --- | --- | --- | --- | --- | --- | --- | --- | --- |
| Cc1ncc(CO)c(CNc2ccc(-c3ccccc3S(N)(=O)=O)cc2)c1O [Compound 8] | < 3.00 | < 3.00 | < 3.00 |  |  |  |  |  |
| Cc1ncc(CNc2ccc(-c3ccccc3S(N)(=O)=O)cn2)c(CO)c1O [Compound 31, 2-{6-[(5-Hydroxy-4-hydroxymethyl-6-methyl-pyridin-3-ylmethyl)-amino]-pyridin-3-yl}-benzenesulfonamide] | < 3.00 | < 3.00 | < 3.00 |  |  |  |  |  |
| Cc1ncc(CO)c(CNc2ccc(-c3ccccc3S(=O)(=O)NC(C)(C)C)cc2)c1O [Compound 7, 4′-[(3-Hydroxy-5-hydroxymethyl-2-methyl-pyridin-4-ylmethyl)-amino]-biphenyl-2-sulfonic acid tert-butylamide] | 3.71 | < 3.00 | < 3.00 |  |  |  |  |  |
| Cc1ncc(CNc2ccc(-c3ccccc3S(=O)(=O)NC(C)(C)C)cc2)c(CO)c1O [Compound 2, 4′-[(5-Hydroxy-4-hydroxymethyl-6-methyl-pyridin-3-ylmethyl) -amino]-biphenyl-2-sulfonic acid tert-butylamide] | 3.48 | < 3.00 | < 3.00 |  |  |  |  |  |
| Cc1ncc(CNc2ccc(-c3ccc(C(=N)N)cc3)cc2)c(CO)c1O [Compound 34, reference compound] | 4.54 | < 3.00 | 5.40 | 63% | 93% | 41% | 1% |  |
| Cc1ncc(CNc2cccc(-c3ccccc3S(N)(=O)=O)c2)c(CO)c1O [Compound 21, 3′-[(5-Hydroxy-4-hydroxymethyl-6-methyl-pyridin-3-ylmethyl)-amino]-biphenyl-2-sulfonic acid amide] | 3.49 | < 3.00 | < 3.00 | 14% | 0% | 4% | 0% |  |
| Cc1ncc(CNc2ccc(-c3ccccc3S(N)(=O)=O)cc2)c(CO)c1O [Compound 3, 4′-[(5-Hydroxy-4-hydroxymethyl-6-methyl-pyridin-3-ylmethyl)-amino]-biphenyl-2-sulfonic acid amide] | < 3.00 | < 3.00 | < 3.00 | 0% | 6% | 0% | 5% |  |
| Cc1ncc(CNC(=O)c2ccc(-c3ccccc3S(N)(=O)=O)cc2)c(CO)c1O [Compound 6, 2′-Sulfamoyl-biphenyl-4-carboxylic acid (5-hydroxy-4-hydroxymethyl-6-methyl-pyridin-3-ylmethyl)-amide] | 3.51 | < 3.00 | < 3.00 | 0% | 1% | 5% | 0% |  |

More lines, main results first:

| pIC50 [1] | pIC50 [2] | pIC50 [3] | Structure (SMILES) | inhibition at 250 µM [4, 6] | inhibition at 250 µM [4, 7] | inhibition at 250 µM [4, 8] | inhibition at 250 µM [4, 9] | further results |
| --- | --- | --- | --- | --- | --- | --- | --- | --- |
| 5.40 | < 3.00 | 4.82 | Cc1ncc(CO)c(CNc2ccc(-c3ccccc3S(N)(=O)=O)cc2)c1OCc1cccc(C(=N)N)c1 [Compound 25, 3-{5-Hydroxymethyl-2-methyl-4-[(2′-sulfamoyl-biphenyl-4-ylamino)-methyl]-pyridin-3-yloxymethyl}-benzamidine] |  |  |  |  |  |
|  | < 3.00 | < 3.00 | Cc1ncc(CO)c(CNc2cccc(-c3ccccc3S(N)(=O)=O)c2)c1O [Compound 32, 3′-[(3-Hydroxy-5-hydroxymethyl-2-methyl-pyridin-4-ylmethyl)-amino]-biphenyl-2-sulfoniamide] |  |  |  |  |  |
| 3.44 | < 3.00 | < 3.00 | Cc1ncc(CNC(=O)c2ccc(-c3ccccc3S(=O)(=O)NC(C)(C)C)cc2)c(CO)c1O [Compound 5, 2′-tert-Butylsulfamoyl-biphenyl-4-carboxylic acid (5-hydroxy-4-hydroxymethyl-6-methyl-pyridin-3-ylmethyl)-amide] |  |  |  |  |  |
| 4.96 | < 3.00 | 4.96 | Cc1ncc(CNc2ccc(-c3ccccc3S(N)(=O)=O)cn2)c(CO)c1OCc1cccc(C(=N)N)c1 [Compound 16] | 3% | 1.3% | 14% | 0% |  |
| 4.74 | 3.77 | 5.40 | Cc1ncc(CO)c(CNc2ccc(-c3ccccc3S(N)(=O)=O)cc2F)c1OCc1ccc(C(=N)N)cc1 [Compound 30, 4-{4-[(3-Fluoro-2′-sulfamoyl-biphenyl-4-ylamino)-methyl]-5-hydroxymethyl-2-methyl-pyridin-3-yloxymethyl}-benzamidine] |  |  |  |  | inhibition at 100 µM [4, 6]: 23%; inhibition at 100 µM [4, 7]: 57%; inhibition at 100 µM [4, 8]: 57%; inhibition at 100 µM [4, 9]: 19% |
| 4.82 | 3.06 | 4.92 | Cc1ncc(CNc2ccc(-c3ccccc3S(N)(=O)=O)cc2)c(CO)c1OCc1cccc(C(=N)N)c1 [Compound 14] | 10% | 9% | 15% | 5% |  |
| 3.98 | 3.52 | 4.74 | Cc1ncc(CNc2ccc(C(=N)N)cc2)c(CO)c1O [Compound 33, reference compound] |  |  |  |  | inhibition at 500 µM ([4]; agonist collagen 1 μg/mL, compound concentration 500 μM, read-out: % Reduction in Aggregation, Collagen (1 μg/mL)): 5%; inhibition at 500 µM [5, 6]: 4%; inhibition at 500 µM [5, 7]: 1%; inhibition at 500 µM [5, 9]: 15% |
| 5.30 | 4.01 | 4.62 | Cc1ncc(CNC(=O)c2ccc(-c3ccccc3S(N)(=O)=O)cc2)c(CO)c1OCc1cccc(C(=N)N)c1 [Compound 23] |  |  |  |  |  |
| 4.77 | 3.32 | 5.52 | Cc1ncc(CO)c(CNc2cccc(-c3ccccc3S(N)(=O)=O)c2)c1OCc1ccc(C(=N)N)cc1 [Compound 28, 4-{5-Hydroxymethyl-2-methyl-4-[(2′-sulfamoyl-biphenyl-3-ylamino)-methyl]-pyridin-3-yloxymethyl}-benzamidine] | 26% | 11% | 10% | 15% |  |
